The results in this text go back to patent publication US10201533B2, “Substituted quinolizine derivatives useful as HIV integrase inhibitors” (priority 2013, dated 2019).

Read-outs that look alike come from different tables or passages of the source.

The test deals with HIV-1 (NL4-3 strain). Description: microbe, parasite or virus in culture. In kind it is cell-based. The settings on record: MT4-GFP cells infected with HIV-1 NL4-3, IP or IC50 from 4-parameter dose response curve.
[1] abbreviates: Human immunodeficiency virus 1, NL43, 0% normal human serum (NHS), read-out: WILD TYPE CELL ASSAY Viking IP (0% NHS).
Setting [2] is: Human immunodeficiency virus 1, NL43, 100% normal human serum (NHS), read-out: WILD TYPE CELL ASSAY Viking IP (100% NHS).
[3] abbreviates: 0% normal human serum (NHS), read-out: WILD TYPE CELL ASSAY Viking IP (0% NHS).
Where [4] appears, read: 100% normal human serum (NHS), read-out: WILD TYPE CELL ASSAY Viking IP (100% NHS).

Take `C[C@]12CCCO[C@H]1Cn1cc(C(=O)NCc3ccc(F)c(Cl)c3)c(=O)c(O)c1C2=O` (single isomer, unassigned) [Compound 30]: the IC50 under setting [1] turned out to be 0.0028 µM and the IC50 under setting [2] is more than 8.4 µM.

Turning to `COc1ncc(CNC(=O)c2cn3c(c(O)c2=O)C(=O)[C@@]2(C)CCCO[C@H]2C3)cc1Cl` (single isomer, unassigned) [Compound 32], the IC50 under setting [1] is 0.0082 µM and the IC50 under setting [2] was more than 8.4 µM.

In the case of `C[C@]12CCCO[C@@H]1Cn1cc(C(=O)NCc3ccc(F)cc3F)c(=O)c(O)c1C2=O` (single isomer, unassigned) [Compound 33], the IC50 by setting is: under setting [3], 0.0005 µM; under setting [4], 0.281 µM.

Take `C[C@]12CCCO[C@@H]1Cn1cc(C(=O)NCc3ccc(F)cc3F)c(=O)c(O)c1C2=O` (single isomer, unassigned) [Compound 34]: the IC50 is, setting by setting: under setting [3], 0.0017 µM; under setting [4], 1.5 µM.

In the case of `C[C@]12CCCO[C@@H]1Cn1cc(C(=O)NCc3cccc(Cl)c3F)c(=O)c(O)c1C2=O` (single isomer, unassigned) [Compound 35], the IC50 worked out at 0.337 µM under setting [4] and 0.0004 µM under setting [1].

Consider `C[C@]12CCCO[C@@H]1Cn1cc(C(=O)NCc3cccc(Cl)c3F)c(=O)c(O)c1C2=O` (single isomer, unassigned) [Compound 36], for which the IC50 came out at 0.0006 µM under setting [3] and 1.4 µM under setting [4].

For the compound `C[C@@]12CCCCO[C@@H]1Cn1cc(C(=O)NCc3ccc(F)cc3F)c(=O)c(O)c1C2=O` (single isomer, unassigned) [Compound 39], the IC50 is, setting by setting: under setting [4], 0.033 µM; under setting [1], 0.0008 µM.

On to `C[C@@]12CCCCO[C@@H]1Cn1cc(C(=O)NCc3ccc(F)cc3F)c(=O)c(O)c1C2=O` (single isomer, unassigned) [Compound 40], for which the IC50 is, setting by setting: under setting [3], 0.0015 µM; under setting [4], 0.442 µM.

As to `C[C@@]12CCCCO[C@@H]1Cn1cc(C(=O)NCc3c(F)cc(F)cc3F)c(=O)c(O)c1C2=O` (single isomer, unassigned) [Compound 41], the IC50 was found to be 0.034 µM under setting [4] and 0.002 µM under setting [1].

`C[C@@]12CCCCO[C@@H]1Cn1cc(C(=O)NCc3c(F)cc(F)cc3F)c(=O)c(O)c1C2=O` (single isomer, unassigned) [Compound 42]: the IC50 was 0.0021 µM under setting [3] and 0.517 µM under setting [4].

With `C[C@]12CCCCO[C@@H]1Cn1cc(C(=O)NCc3ccc(F)cc3F)c(=O)c(O)c1C2=O` (single isomer, unassigned) [Compound 43], the IC50 amounted to 2 µM under setting [4] and 0.0032 µM under setting [1].

Turning to `C[C@]12CCCCO[C@@H]1Cn1cc(C(=O)NCc3ccc(F)cc3F)c(=O)c(O)c1C2=O` (single isomer, unassigned) [Compound 44], the IC50 by setting is: under setting [3], 0.0019 µM; under setting [4], 0.316 µM.

As for `C[C@]12CCCCO[C@@H]1Cn1cc(C(=O)NCc3cccc(Cl)c3F)c(=O)c(O)c1C2=O` (single isomer, unassigned) [Compound 45], the IC50 under setting [4] was determined as 4.75 µM and the IC50 under setting [1] turned out to be 0.0023 µM.

For `C[C@]12CCCCO[C@@H]1Cn1cc(C(=O)NCc3cccc(Cl)c3F)c(=O)c(O)c1C2=O` (single isomer, unassigned) [Compound 46], the IC50 reads like this: under setting [3], 0.0013 µM; under setting [4], 0.459 µM.

`CC1(C)CCn2cc(C(=O)NCc3ccc(F)cc3)c(=O)c(O)c2C1=O` [Compound 2]: the IC50 under setting [1] was determined as 0.027 µM.

Turning to `CC1(C)CCn2cc(C(=O)NCc3cc4ccccn4n3)c(=O)c(O)c2C1=O` [Compound 3], under setting [1], the IC50 worked out at 0.0065 µM.

Consider `CC1(C)C(=O)c2c(O)c(=O)c(C(=O)NCc3ccc(F)cc3F)cn2CC1O` (stereo not shown) [Compound 4], for which the IC50 reads like this: under setting [1], 0.074 µM; under setting [2], 1.85 µM.

For `COC1Cn2cc(C(=O)NCc3ccc(F)cc3F)c(=O)c(O)c2C(=O)C1(C)C` (stereo not shown) [Compound 5], the IC50 by setting is: under setting [1], 0.0026 µM; under setting [2], 0.102 µM.

As for `COc1c2n(cc(-c3nnc(Cc4ccc(F)cc4F)s3)c1=O)CC(OC)C(C)(C)C2=O` (stereo not shown) [Compound 6], the IC50 under setting [3] worked out at 0.01 µM.

With `C[C@]12CCCO[C@H]1Cn1cc(C(=O)NCc3ccc(F)cc3F)c(=O)c(O)c1C2=O` [Compound 7], the IC50 is, setting by setting: under setting [4], 0.154 µM; under setting [1], 0.0022 µM.

Consider `C[C@]12CCCO[C@H]1Cn1cc(C(=O)NCc3ccc(F)cc3F)c(=O)c(O)c1C2=O` [Compound 8], for which the IC50 is 0.0018 µM under setting [3] and 0.5 µM under setting [4].

In the case of `O=C(NCc1ccc(F)cc1F)c1cn2c(c(O)c1=O)C(=O)C1CCOC1C2` (stereo not shown) [Compound 10], the IC50 under setting [1] is 0.066 µM.

On to `C[C@@]12COCO[C@H]1Cn1cc(C(=O)NCc3ccc(F)cc3F)c(=O)c(O)c1C2=O` [Compound 11], for which the IC50 stood at 0.0032 µM under setting [1] and 0.484 µM under setting [2].

For the compound `C[C@@]12COCO[C@H]1Cn1cc(C(=O)NCc3ccc(F)cc3F)c(=O)c(O)c1C2=O` [Compound 12], the IC50 reads like this: under setting [3], 0.0026 µM; under setting [4], 0.595 µM.

Take `C[C@]12COCO[C@H]1Cn1cc(C(=O)NCc3ccc(F)cc3F)c(=O)c(O)c1C2=O` [Compound 13]: the IC50 stood at 0.0038 µM under setting [1] and 0.124 µM under setting [2].

For the compound `Cc1nc(CNC(=O)c2cn3c(c(O)c2=O)C(=O)[C@@]2(C)CCCO[C@H]2C3)sc1C` [Compound 31], the IC50 runs as follows: under setting [1], 0.048 µM; under setting [2], more than 8.4 µM.

As to `C[C@]12CCCCO[C@H]1Cn1cc(C(=O)NCc3cccc(Cl)c3F)c(=O)c(O)c1C2=O` [Compound 37], the IC50 was determined as 0.08 µM under setting [4] and 0.0015 µM under setting [1].

Regarding `C[C@]12CCCCO[C@H]1Cn1cc(C(=O)NCc3cccc(Cl)c3F)c(=O)c(O)c1C2=O` [Compound 38], the IC50 runs as follows: under setting [3], 0.0018 µM; under setting [4], 1.6 µM.

For `C[C@@]12CC=CCO[C@@H]1Cn1cc(C(=O)NCc3ccc(F)cc3F)c(=O)c(O)c1C2=O` [Compound 47], the IC50 runs as follows: under setting [4], 0.07 µM; under setting [1], 0.0013 µM.

For the compound `C[C@@]12CC=CCO[C@@H]1Cn1cc(C(=O)NCc3ccc(F)cc3F)c(=O)c(O)c1C2=O` [Compound 48], the IC50 was found to be 0.0017 µM under setting [3] and 0.913 µM under setting [4].

For `C[C@]12CC=CCO[C@@H]1Cn1cc(C(=O)NCc3ccc(F)cc3F)c(=O)c(O)c1C2=O` [Compound 49], the IC50 under setting [4] is 4.07 µM and the IC50 under setting [1] was found to be 0.0032 µM.

In the case of `C[C@]12CC=CCO[C@@H]1Cn1cc(C(=O)NCc3ccc(F)cc3F)c(=O)c(O)c1C2=O` [Compound 50], the IC50 amounted to 0.0016 µM under setting [3] and 0.293 µM under setting [4].

`COC1(C)CCn2cc(C(=O)NCc3ccc(F)cc3F)c(=O)c(O)c2C1=O` (stereo not shown) [Compound 51]: the IC50 runs as follows: under setting [4], 2.2 µM; under setting [1], 0.0036 µM.

Turning to `COC1(C)CCn2cc(C(=O)NCc3ccc(F)cc3F)c(=O)c(O)c2C1=O` (stereo not shown) [Compound 52], the IC50 under setting [3] was 0.0034 µM and the IC50 under setting [4] was more than 8.4 µM.

As for `COC[C@]1(C)C(=O)c2c(O)c(=O)c(C(=O)NCc3ccc(F)cc3F)cn2C[C@@H]1OC` [Compound 54], the IC50 came out at 0.0018 µM under setting [3] and 0.055 µM under setting [4].

As for `COC[C@]1(C)C(=O)c2c(O)c(=O)c(C(=O)NCc3ccc(F)cc3F)cn2C[C@@H]1OC` [Compound 55], the IC50 is, setting by setting: under setting [3], 0.0081 µM; under setting [4], more than 8.4 µM.

As for `COC[C@@]1(C)C(=O)c2c(O)c(=O)c(C(=O)NCc3ccc(F)cc3F)cn2C[C@@H]1OC` [Compound 56], the IC50 was 0.342 µM under setting [4] and 0.0034 µM under setting [1].
